The test system of test [1] is MITF. The test is described as follows: Western blotting, MITF protein expression in human epidermal melanocytes. In kind it is cell-based. To be noted: α-MSH, predetermined concentrations, 24 hours (FIG. 5). As for the experimental part:
(§1) We evaluated the effects of the peptide fragment of the present invention on the protein expressions of the melanin-producing enzymes in human epidermal melanocytes, using a Western blotting assay. Human epidermal melanocytes (Cascade Biologics, #C-0245C; Portland, Oreg., USA) were added to each well of a 6-well microplate (1.5×10^5 cells per well), along with 2 ml of DMEM, and then stabilized through incubating in a 5% CO2 incubator at 37° C. for 24 hours. α-MSH (Sigma Co, MO, USA), a melanocyte-stimulating hormone, was treated to each well, along with the peptide fragment of the present invention (the peptide of SEQ ID NO: 8) in predetermined concentrations. After incubating the cells for 24 hours, the proteins were extracted therefrom. The obtained extracts were subject to the Western blotting assay using an anti-MITF antibody (ABcam, Ma, USA), an anti-tyrosinase antibody (Santa Cruz Co., CA, USA), an anti-TRP-1 antibody (Santa Cruz Co., CA, USA), and an anti-TRP-2 antibody (Santa Cruz Co., CA, USA), so as to measure the expression levels of MITF, tyrosinase, TRP-1, and TRP-2.
On the technique in general: In western blotting, separated proteins are transferred to a membrane and probed.

Test [2] deals with tyrosinase. The test is described as follows: Western blotting, tyrosinase protein expression in human epidermal melanocytes. In kind it is cell-based. To be noted: α-MSH, predetermined concentrations, 24 hours (FIG. 5). As for the experimental part: as §1
For test [3], the system named is TRP-1. As to the kind of experiment: RT-PCR, TRP-1 gene expression in human epidermal melanocytes. To be noted: α-MSH, predetermined concentrations, 72 hours, RT-PCR (FIG. 6). The test is classed as cell-based. The protocol: (§2) Human epidermal melanocytes were added to each well of a 6-well plate (1.5×10^5 cells per well), along with 2 ml of DMEM, and then stabilized through incubating in a 5% CO2 incubator at 37° C. for 24 hours. α-MSH (Sigma Co, MO, USA), a melanocyte-stimulating hormone, was treated to each well, along with the peptide of SEQ ID NO: 8 in predetermined concentrations. After incubating the cells for 72 hours, the total RNAs were extracted therefrom and then cDNAs were synthesized. The cDNA syntheses were carried out with a Reverse Transcription Master premix (Elpisbiotech, Daejeon, Korea). Using each synthesized cDNA as a template, reverse transcription polymerase chain reactions (RT-PCR) were carried out with a ROTOR Q GENE apparatus. Each RT-PCR solution was prepared by mixing 1 μl of cDNA, 10 μl of TOPreal qRT-PCR2X premix (Enzynomics, Daejeon, Korea), 2 μl of primer set (10 pmol) and 7 μl of D.W. The RT-PCR was carried out as follows: initially at 94° C. for 10 minutes; and then at 94° C. for 10 seconds, at 58° C. for 30 seconds, and at 72° C. for 1 minute; 40 cycles.

For test [4], the system named is TRP-2. As to the kind of experiment: Western blotting, TRP-2 protein expression in human epidermal melanocytes. In kind it is cell-based. The conditions noted are these: α-MSH, predetermined concentrations, 24 hours (FIG. 5). As for the experimental part: as §1
Test [5] relates to TRP-2. The test is described as follows: RT-PCR, TRP-2 gene expression in human epidermal melanocytes. The test is classed as cell-based. To be noted: α-MSH, predetermined concentrations, 72 hours, RT-PCR (FIG. 6). The protocol:
as §2

Test [6] relates to tyrosinase. The test is described as follows: inhibitory activity against tyrosinase activity in B16F10 (L-DOPA, 490 nm). The test is classed as cell-based, mouse. To be noted: B16F10, α-MSH, predetermined concentrations, 72 hours, 490 nm (FIG. 4). As for the experimental part: B16F10 cells (Korean Cell Line Bank, Seoul) were added to each well of a 24-well plate (5×10^4 cells per well), along with 1 ml of DMEM, and then stabilized through incubating in a 5% CO2 incubator at 37° C. for 24 hours. α-MSH (Sigma Co, MO, USA), a melanocyte-stimulating hormone, was treated to each well, along with the peptide of SEQ ID NO: 8 in predetermined concentrations. After incubating the cells for 72 hours, the proteins were extracted therefrom. The obtained extracts were added to each well of a 96-well plate ([…] per each well) and then treated with a L-dihydroxyphenylalanine (L-DOPA) solution (100 μL) at 37° C. for 2 hours. The groups in which α-MSH (100 nM) and arbutin (0.01%) were respectively treated were used as positive controls. After 2 hours, the pictures thereof were taken and the tyrosinase activities thereof were measured at 490 nm with a microreader.

The subject of another test is β-catenin. The test is described as follows: Western blotting, β-catenin expression in human epidermal melanocytes. The test is classed as cell-based. The conditions noted are these: α-MSH, predetermined concentrations, 48 hours (FIG. 2). As for the experimental part:
(§3) The effects of the peptide fragment of the present invention on the β-catenin expression and the GSK-3 phosphorylation, which plays a critical role in the activation of Wnt signaling pathways, were evaluated using a Western blotting assay. Human epidermal melanocytes (Cascade Biologics, #C-0245C; Portland, Oreg., USA) were added to 2 ml of DMEM in each well of a 6-well microplate (1.5×10^5 cells per well). The cells were then stabilized through incubating in a 5% CO2 incubator at 37° C. for 24 hours. α-MSH (Sigma Co, MO, USA), a melanocyte-stimulating hormone, was treated to each well, along with the peptide fragment of the present invention (the peptide of SEQ ID NO: 8) in predetermined concentrations. After the cells were cultured for 48 hours, the proteins were extracted therefrom. The obtained extracts were subject to the Western blotting assay using an anti-β-catenin antibody (Santa Cruz Co., CA, USA) and an anti-pGSK-3 antibody (Cell SignalingTechnology, MA, USA), so as to measure the levels of β-catenin expression and GSK-3 phosphorylation changes. […] Therefore, it can be seen that the peptide fragments of the present invention can inhibit the Wnt signaling pathways in melanocytes.

For test [7], the system named is MITF. The test is described as follows: RT-PCR, MITF gene expression in human epidermal melanocytes. The test is classed as cell-based. To be noted: α-MSH, predetermined concentrations, 72 hours, RT-PCR (FIG. 6). The protocol:
as §2

The next test relates to tyrosinase (TYR). The test is described as follows: RT-PCR, tyrosinase gene expression in human epidermal melanocytes. In kind it is cell-based. To be noted: α-MSH, predetermined concentrations, 72 hours, RT-PCR (FIG. 6). The protocol:
as §2

In the next test the test system is MITF and β-catenin. As to the kind of experiment: in situ proximity ligation assay, binding between MITF and β-catenin. The test is classed as cell-based, mouse. The conditions noted are these: B16F1 cells, similar methods to CREB test (FIG. 1c). As for the experimental part:
The effects of the peptide fragments of the present invention on the β-catenin activation, which plays a critical role in Wnt signaling pathways, were evaluated using an in situ proximity ligation assay. The evaluation was performed with a commercially available kit, i.e., DUOLINK II in situ kit from Olink Bioscience, Sweden.
The mouse melanoma cell line B16F1 cells (Korean Cell Line Bank, Seoul) were added to 1 ml of DMEM in each well of a 24-well plate (5×10^4 cells per well), each well having a 12 mm glass in the bottom thereof. The cells were then stabilized through incubating in a 5% CO2 incubator at 37° C. for 24 hours. α-MSH (Sigma Co, MO, USA), a melanocyte-stimulating hormone (0.1 μM), and the peptide fragments of the present invention (1 μM) were treated to each well. The cells were cultured in a 5% CO2 incubator at 37° C. for 24 hours and then fixed with 4% paraformaldehyde. After a drop of the blocking solution was added to the cells on the 12 mm glass, the cells were then incubated at 37° C. for 30 minutes. Activation of the Wnt receptor increases the interaction between CREB (cyclic AMP response element-binding) and β-catenin. For determining the interaction levels thereof, the cells were treated with an anti-CREB polyclonal antibody (Santa Cruz Co., CA, USA) and an anti-β-catenin mouse monoclonal antibody (Santa Cruz Co., CA, USA) at 37° C. After incubating 30 minutes therefrom, the cells were treated with the PLA probe solution at 37° C. for 1 hour, with the ligation solution for 30 minutes, and then with the amplification solution for 100 minutes. After washing the cells with the washing buffer, the number of the red spots was measured with a confocal microscopy. In FIGS. 1a and 1b, the control means the group of no treatment and the α-MSH means the group treated with only α-MSH (i.e., without peptide treatment).
And also, according to similar methods in the above, we investigated the inhibitory effects of the peptides of SEQ ID NOs: 5, 8, and 9 on the binding between MITF and β-catenin.

For a further test, the system named is GSK-3. As to the kind of experiment: Western blotting, GSK-3 phosphorylation in human epidermal melanocytes. In kind it is cell-based. To be noted: α-MSH, predetermined concentrations, 48 hours (FIG. 2). As for the experimental part:
as §3

Test [8] relates to TRP-1. The test is described as follows: Western blotting, TRP-1 protein expression in human epidermal melanocytes. The conditions noted are these: α-MSH, predetermined concentrations, 24 hours (FIG. 5). In kind it is cell-based. As for the experimental part:
as §1

In test [9] the test system is mouse melanoma cell line B16F10. As to the kind of experiment: inhibitory activity against melanin formation in B16F10. The conditions noted are these: B16F10, α-MSH 100 nM, peptide 0.1, 1, and 10 μM, 24 hours (FIG. 3). The test is classed as cell-based. The protocol:
B16F10 cells (Korean Cell Line Bank, Seoul) were added to each well of a 6-well microplate (1.5×10^5 cells per well), along with 2 ml of DMEM, and then incubated in a 5% CO2 incubator at 37° C. for 24 hours. α-MSH (Sigma Co, MO, USA) (100 nM) was treated to each well, along with the peptide of SEQ ID NO: 8 in the final concentrations of 0.1, 1, and 10 μM. The groups in which α-MSH (100 nM) and arbutin (0.01%) were respectively treated were used as positive controls. After additionally incubating the cells for 24 hours, the pictures of each culture ware taken so as to compare the respective levels of melanin formation.

For the substance “Ala-Gln-Lys (AQK; Petide fragment) [SEQ ID NO: 8, Sfrp5-derived peptide fragment]”, in the test on MITF [1], the “expression level of MITF (protein)” value is reported as “decreased”. Also, in the test with tyrosinase [2], the “expression level of tyrosinase (protein)” value is “decreased”. In addition, in the test with TRP-1 [3], the “gene expression of TRP-1” value is recorded as “decreased in concentration-dependent manner”. Moreover, the “expression level of TRP-2 (protein)” value in the test on TRP-2 [4] is reported as “decreased”. Also, the “gene expression of TRP-2” value in the test on TRP-2 [5] is “decreased in concentration-dependent manner”. For the same substance, in the test with tyrosinase [6], the tyrosinase activity entry is given as “decreased in concentration-dependent manner”. Moreover, the “level of β-catenin expression” value in the test with β-catenin is “decreased”. For the same substance, in the test on MITF [7], the “gene expression of MITF” value was “decreased in concentration-dependent manner”. The “gene expression of tyrosinase (TYR)” value in the test with tyrosinase (TYR) was “decreased in concentration-dependent manner”. Besides, the “bindings between MITF and β-catenin” value in the test with MITF and β-catenin is listed as “significantly decreased”. In the test with GSK-3, the “level of GSK-3 phosphorylation” value was “decreased”. The “expression level of TRP-1 (protein)” value in the test on TRP-1 [8] is recorded as “decreased”. For the same substance, the “melanin formation (brown colors of cell culture)” value in [9] is “decreased according to the concentrations of the peptide”.

Turning to “Cys-Glu-Ala-Val (CEAV; Peptide fragment) [SEQ ID NO: 9, Sfrp5-derived peptide fragment]”, the “bindings between MITF and β-catenin” value in the test with MITF and β-catenin is recorded as “significantly decreased”.

For “Lys-Ile-Gly (KIG; Petide fragment) [SEQ ID NO: 5, Sfrp5-derived peptide fragment]”, the “bindings between MITF and β-catenin” value in the test on MITF and β-catenin is recorded as “significantly decreased”.

“α-MSH: a melanocyte-stimulating hormone (Sigma Co, MO, USA), used as stimulant [reference compound]”: the “gene expression of TRP-1” value with TRP-1 [3] was “increased”. In the test on TRP-2 [5], the “gene expression of TRP-2” value was “increased”. For the same substance, the tyrosinase activity entry with tyrosinase [6] is recorded as “increased”. The “gene expression of MITF” value with MITF [7] was “increased”. Moreover, in the test on tyrosinase (TYR), the “gene expression of tyrosinase (TYR)” value was “increased”.
